These results are taken from PubChem BioAssay (NCI).

Experiment in all cases: growth of human tumour cells (NCI), 48 h
In assay [1] the test system is DLD-1 colon.
In assay [2] the test system is HCT-116 colon.
Assay [3] relates to HT29 colon.
In assay [4] the test system is KM12 colon.
The test system of assay [5] is LXFL 529 NSCLC.
In assay [6] the test system is U251 CNS.
The test system of assay [7] is CAKI-1 renal.
The subject of assay [8] is NCI-H522 lung.
In assay [9] the test system is DU-145 prostate.
Assay [10] has as its system PC-3 prostate.

Values joined by “and” are separate entries in the source; they are usually repeats but may differ in a detail not shown here. Equal values may be shown once.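 48-hour exposure; five concentrations; linearly interpolated endpoints. The concentration for 50% growth inhibition is given as GI50. TGI: total growth inhibition.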

For the compound `CC(=O)OC1=C2CC[C@@H]3C(CC[C@@]4(C)C3CC[C@@H]4OC(C)=O)[C@@]2(C)CC(C#N)C1=O` (stereo partly specified), the TGI was 69.8 µM in assay [1]; over 100 µM in assay [2]; over 100 µM in assay [3]; over 100 µM in assay [4]; 91.3 µM in assay [5]; 90.5 µM in assay [6].
Take `Cc1[nH]c2ccccc2c1C1=NO/C(=N\O)C(c2c(C)[nH]c3ccccc23)C1` (stereo unspecified): the TGI was over 100 µM in [7]; over 100 µM in assay [1]; over 78.5 µM in [2]; 58.9 µM in [3]; over 100 µM in assay [4]; over 100 µM in assay [5]. Moreover, in [6], the TGI is over 100 µM.
For the compound `CN=C1CN=C(OP(=O)(N2CCOCC2)N2CCOCC2)c2cc(Cl)ccc2N1`, the TGI in [7], in [1], in assay [2], in assay [3], in [4] and in assay [5] was over 100 µM throughout. Also, the TGI in assay [8] and in assay [6] was over 100 µM throughout.
As for `[Co].[O-]c1cccnc1C=Nc1ccccc1.[OH3+]`, the GI50 was 90.7 µM in assay [1]; over 100 µM in assay [2]; over 100 µM in assay [3]; over 100 µM in assay [4]; 47.2 µM in [5]; 39.3 µM in [8]. In addition, the GI50 in [6] was over 100 µM. Besides, the TGI in [1], in [2], in assay [3], in [4], in assay [5] and in [8] was over 100 µM in each case. Further, in [6], the TGI was over 100 µM.
As to `Cc1ccc(/C=N/NS(=O)(=O)c2ccccc2)cc1C`, the TGI in assay [7], in [1], in [2], in assay [3], in assay [4] and in [5] was over 100 µM throughout. The compound further displayed a TGI in assay [6] of over 100 µM.
Turning to `CC(=O)NCc1c(C(N)=O)ncn1Cc1ccccc1`, the TGI in [7], in assay [2], in assay [3], in assay [5] and in [6] was over 100 µM each time.
`O=C(O)CCSC(=O)Nc1cccc2ccccc12`: the TGI in assay [7], in [1], in [2], in assay [3], in assay [4] and in assay [5] was over 100 µM throughout. The compound also displayed a TGI in assay [6] of over 100 µM.
Consider `COc1ccc(-c2oc3c(OC)c(OC)c(OC)c(O)c3c(=O)c2OC)cc1O`, for which the GI50 in assay [7] was under 0.01 µM; in assay [1] it was 0.0674 µM; in [4], 0.638 µM; in assay [5], under 0.01 µM; in [6], under 0.01 µM. The TGI in assay [7] is over 100 µM; in assay [1], over 100 µM; in assay [3], 36.8 µM; in assay [4], 10.3 µM; in assay [5], over 100 µM; in [8] it was under 0.01 µM. The TGI in assay [6] is 0.898 µM and 0.23 µM.
In the case of `CO/C=C(\Br)c1ccc2c(c1)OCO2`, the TGI in assay [7], in assay [2], in assay [4], in assay [5], in assay [8] and in [6] was over 100 µM in each case.
With `CC(=O)[CH-]C(C)=O.CC(=O)[CH-]C(C)=O.[Cl-].[O]=[V]`, the GI50 in assay [7] was 55.3 µM; in assay [1] it was 34.6 µM; in [2], 19.1 µM; in [5] it was 47.5 µM; in [8] it was over 100 µM; in assay [6], 22.5 µM. The TGI in assay [7] was over 100 µM; in assay [1], over 100 µM; in [2], 48.3 µM; in [5], over 100 µM; in [8], over 100 µM; in assay [6] it was 59 µM.
For the compound `CN(C)CCN(C)C(=O)c1cccc2cccc(C(=O)O)c12`, the TGI in assay [1], in [2], in assay [3], in [5] and in [6] was over 100 µM in each case.
For the compound `CC(C)CCCCCCCCCCCCC(=O)NCC(=O)NC1C(C)OC(Nc2ncnc3nc[nH]c23)C(O)C1O` (stereo unspecified), the GI50 was 0.00264 µM in assay [7]; 0.00453 µM in [3]; 0.000442 µM in assay [4]; 0.00336 µM in [5]; 0.00137 µM in assay [8]; 0.000334 µM in assay [6]. For the same compound, the TGI in assay [1] turned out to be 0.105 µM; in [4], 0.208 µM; in [5] it was 0.515 µM; in [8], 0.0182 µM; in [6] it was 0.038 µM.
On to `O=C(CC1(O)C(=O)Nc2ccccc21)c1ccc(Cl)cc1Cl` (stereo unspecified), for which the TGI in assay [7], in assay [1], in assay [2], in assay [3], in assay [5] and in [8] was over 100 µM each time.
Take `COc1ccccc1NC(=O)C1=C(C)NC(C)=C(C(=O)Nc2ccccc2OC)C1c1ccccc1Cl`: the TGI in [7], in assay [1], in [2], in assay [3], in [4] and in [5] was over 100 µM throughout. The compound also yielded a TGI in [6] of over 100 µM.
Turning to `COc1ccc(-c2cc(=O)c3cc(C)c(C)c(C(=O)O)c3o2)cc1`, the TGI in assay [7], in assay [1], in assay [2], in assay [3], in [4] and in assay [5] was over 100 µM throughout. The compound further registered a TGI in assay [6] of over 100 µM.
Turning to `O=C(Nc1ccccc1Cl)c1ccc(NC2=C(Cl)C(=O)N(C3CCCCC3)C2=O)cc1`, the GI50 in assay [7] was 22.9 µM; in assay [9], 6.78 µM; in [2], 5.51 µM; in [3], 10.8 µM; in assay [4], 16.9 µM; in assay [8] it was 6.23 µM. Further, the figures for the GI50 in assay [10] and in assay [6] were 13.6 µM and 3 µM, respectively. Besides, the TGI in [7] was 56.5 µM; in assay [9], 23.9 µM; in [2], 36.1 µM; in assay [3], 30 µM; in assay [4] it was 35.7 µM; in [8], 34.7 µM. The TGI in [10] is 45.5 µM; in [6], 19.4 µM.
